Measurements: ChEMBL document CHEMBL5034045, “Novel Macrocyclic Peptidylarginine Deiminase Type 4 (PAD4) Inhibitors” (ACS Med Chem Lett, 2022)

Biological target: Protein-arginine deiminase type-4 (Homo sapiens, UniProt Q9UM07)
Experiment: Inhibition of human PAD4 using BAEE as substrate incubated for 30 mins by spectrophotometric based assay

Sequence of Protein-arginine deiminase type-4 (Q9UM07 whole entry): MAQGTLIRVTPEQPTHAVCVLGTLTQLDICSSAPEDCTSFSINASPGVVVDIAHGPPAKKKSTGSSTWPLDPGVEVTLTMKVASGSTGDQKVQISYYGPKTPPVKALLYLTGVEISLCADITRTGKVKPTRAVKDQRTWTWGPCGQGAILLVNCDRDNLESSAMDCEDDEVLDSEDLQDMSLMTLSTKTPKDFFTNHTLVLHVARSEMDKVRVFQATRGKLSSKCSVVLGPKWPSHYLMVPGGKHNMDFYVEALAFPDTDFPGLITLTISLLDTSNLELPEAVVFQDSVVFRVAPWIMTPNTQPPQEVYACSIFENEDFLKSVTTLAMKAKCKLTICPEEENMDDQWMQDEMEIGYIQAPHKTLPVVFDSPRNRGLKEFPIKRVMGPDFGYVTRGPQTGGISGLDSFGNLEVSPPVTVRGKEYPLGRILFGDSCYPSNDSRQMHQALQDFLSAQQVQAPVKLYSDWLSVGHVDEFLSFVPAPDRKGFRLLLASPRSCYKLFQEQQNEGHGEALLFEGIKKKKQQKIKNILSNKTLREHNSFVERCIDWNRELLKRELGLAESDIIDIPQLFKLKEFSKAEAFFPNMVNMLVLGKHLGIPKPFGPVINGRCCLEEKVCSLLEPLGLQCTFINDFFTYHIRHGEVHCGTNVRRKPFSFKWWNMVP

Structure (SMILES)	IC50
Cc1ccc2c(n1)CCCCCn1c(-c3nc4cc(C(=O)N5C[C@H](N)[C@@H]6CC[C@H]5C6)cc(F)c4n3C3CC3)cc3ccc(nc31)C(C)NC2=O (stereo partly specified)	6 nM
CC1NC(=O)[C@@H]2C[C@@]2(F)CCCC(F)(F)Cn2c(-c3nc4cc(C(=O)N5CCC[C@@H](N)[C@H]5C)cc(F)c4n3C3CC3)cc3ccc1nc32 (stereo partly specified)	5 nM
CC1NC(=O)[C@@H]2CC2CCCC(F)(F)Cn2c(-c3nc4cc(C(=O)N5CCC[C@@H](N)[C@H]5C)cc(Cl)c4n3C3CC3)cc3ccc1nc32 (stereo partly specified)	6 nM
[2H]C1([2H])[C@H](N)[C@@H]2CC[C@@H](C2)N1C(=O)c1cc(OC)c2c(c1)nc(-c1cc3ccc4nc3n1CCCCCc1ccccc1C(=O)NC4C)n2C (stereo partly specified)	5 nM
CC1NC(=O)c2cc3sccc3nc2CCCCCn2c(-c3nc4cc(C(=O)N5CCC[C@@H](N)[C@H]5C)cc(F)c4n3C3CC3)cc3ccc1nc32 (stereo partly specified)	5 nM
COc1cc(C(=O)N2C[C@H](N)[C@@H]3CC[C@H]2C3)cc2nc(-c3cc4ccc5nc4n3CCCCCC3[C@H](C(=O)NC5C)C3(F)F)n(C)c12 (stereo partly specified)	5 nM
